In PubChem BioAssay (NCI):
Several values for one entry are separate records, joined by “and”; a condition that tells them apart may be missing. Identical values can stand only once.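 Assay format: 96-well plates, 48-hour exposure. Abbreviation: GI50, concentration required for 50% inhibition of growth. TGI is the concentration that stops growth completely.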

What was measured:
Test in all cases: DTP human tumour cell line panel, 48 h
ACHN renal = test system: ACHN renal
A549 NSCLC = test system: A549 NSCLC
COLO 205 colon = test system: COLO 205 colon
SK-MEL-5 melanoma = test system: SK-MEL-5 melanoma
A498 renal = test system: A498 renal
NCI-H522 lung = test system: NCI-H522 lung
UO-31 renal = test system: UO-31 renal
OVCAR-3 ovarian = test system: OVCAR-3 ovarian
PC-3 prostate = test system: PC-3 prostate
MCF7 breast = test system: MCF7 breast

| SMILES | TGI (ACHN renal) | TGI (A549 NSCLC) | TGI (COLO 205 colon) | TGI (SK-MEL-5 melanoma) | TGI (A498 renal) | TGI (NCI-H522 lung) | TGI (UO-31 renal) | TGI (OVCAR-3 ovarian) | GI50 (ACHN renal) | GI50 (A549 NSCLC) | GI50 (COLO 205 colon) | GI50 (SK-MEL-5 melanoma) | GI50 (A498 renal) | GI50 (NCI-H522 lung) | GI50 (UO-31 renal) | GI50 (OVCAR-3 ovarian) | GI50 (PC-3 prostate) | TGI (PC-3 prostate) | GI50 (MCF7 breast) | TGI (MCF7 breast) |
| --- | --- | --- | --- | --- | --- | --- | --- | --- | --- | --- | --- | --- | --- | --- | --- | --- | --- | --- | --- | --- |
| CC1=Nc2ccccc2S/C1=C1/C=NC(=NC#N)N=C1C(=O)Nc1cccc(Cl)c1 | > 100 µM | > 100 µM | > 100 µM | > 100 µM | > 100 µM | > 100 µM | > 100 µM | > 100 µM |  |  |  |  |  |  |  |  |  |  |  |  |
| CC(=O)[CH-]C(=O)c1ccccc1.CC(=O)[CH-]C(=O)c1ccccc1.Cl.[O-]CCc1ccccn1.[O-]CCc1ccccn1.[Ti+4] | > 100 µM | 95.9 µM | 72.2 µM | 53.6 µM | 75.1 µM | 70.6 µM | 47.4 µM | > 100 µM | 33.4 µM | 27.8 µM | 29.3 µM | 20 µM | 28.8 µM | 27.8 µM | 17.4 µM | 32.3 µM |  |  |  |  |
| O=C1CCNC/C1=C\c1ccccc1 | 78 µM | 92.2 µM | > 100 µM | 40.2 µM | > 100 µM | 23.4 µM | 35.5 µM | 54.8 µM |  |  |  |  |  |  |  |  |  |  |  |  |
| O=C1N(c2ccc(Cl)cc2)C(=O)C2(SC=NN2Cc2ccccc2)N1c1ccc(Cl)cc1 (stereo not given) | > 100 µM | > 100 µM |  | > 100 µM | > 100 µM | > 100 µM | > 100 µM | > 100 µM |  |  |  |  |  |  |  |  |  |  |  |  |
| N#C/C(=C/c1ccc([N+](=O)[O-])o1)c1ccccc1 | > 100 µM | > 100 µM | > 100 µM | > 100 µM |  | > 100 µM | > 100 µM | > 100 µM |  |  |  |  |  |  |  |  |  |  |  |  |
| Cc1ccc2nc(CN(CCN(Cc3nc4ccc(C)cc4[nH]3)Cc3nc4ccc(C)cc4[nH]3)Cc3nc4ccc(C)cc4[nH]3)[nH]c2c1 | 2.94 µM | 3.54 µM | 3.15 µM | 3.06 µM | 3.14 µM |  | 3.14 µM | 3.31 µM | 1.6 µM | 1.86 µM | 1.7 µM | 1.69 µM | 1.71 µM |  | 1.71 µM | 1.84 µM | 1.85 µM | 3.51 µM |  |  |
| CC1OC(O[C@@H]2C=C3CC[C@@H]4[C@H](CC[C@]5(C)[C@@H](c6ccc(=O)oc6)CC[C@]45O)[C@@]3(C)CC2)C(O)C(O)C1O (stereo not given in full) | 0.003 µM and 0.000431 µM |  | 0.0208 µM and 0.0477 µM | 0.003 µM and 0.0122 µM |  |  | 0.00205 µM | 0.00262 µM and 0.000359 µM | 0.00478 µM |  |  |  | 0.00127 µM |  |  |  |  | 0.00558 µM |  |  |
| COC1=CC(=O)C2(C=C1OC)OC[C@H]1Oc3c(ccc4c3C=CC(C)(C)O4)C(=O)[C@H]12 (stereo not given in full) | > 100 µM | > 100 µM | > 100 µM |  | > 100 µM | 51.5 µM | > 100 µM | > 100 µM |  |  |  |  |  |  |  |  |  |  |  |  |
| COc1cc(O)c(C(=O)C2Cc3ccccc32)c(OC)c1 (stereo not given) | > 100 µM | > 100 µM | > 100 µM | > 100 µM | > 100 µM | > 100 µM | > 100 µM |  |  |  |  |  |  |  |  |  |  |  |  |  |
| COC(=O)CC(=O)OC1C[C@@H]2CCC3C(C)(C)CCC[C@]3(C)C23CC[C@@]1(C)C3 (stereo not given in full) | 31.7 µM | 65.1 µM | 33.9 µM | 31.7 µM |  | 25.7 µM | 39.8 µM | 30.7 µM |  |  |  |  |  |  |  |  |  |  |  |  |
| ClC/C=C/CSc1ncnc2nc[nH]c12 | > 100 µM |  | > 100 µM | > 100 µM | > 100 µM |  | > 100 µM | > 100 µM | > 100 µM |  | > 100 µM | > 100 µM | > 100 µM |  | > 100 µM | > 100 µM | > 100 µM | > 100 µM | > 100 µM | > 100 µM |
| CC(=O)OC1COC(N2C(=O)C(=O)c3ccccc32)C(OC(C)=O)C1OC(C)=O (stereo not given) | > 100 µM | > 100 µM | > 100 µM | > 100 µM | > 100 µM | > 100 µM | > 100 µM | > 100 µM |  |  |  |  |  |  |  |  |  |  |  |  |
| O=[N+]([O-])c1ccc(N=P(c2ccccc2)(c2ccccc2)c2ccccc2)n2nnnc12 | > 100 µM | > 100 µM | > 100 µM | > 100 µM | > 100 µM | > 100 µM | > 100 µM | > 100 µM |  |  |  |  |  |  |  |  |  |  |  |  |
| O=C1c2c(c3c4ccccc4n(CC4CO4)c3c3[nH]c4ccccc4c23)C(=O)N1Cc1ccccc1 (stereo not given) |  | > 100 µM |  |  | > 100 µM | > 100 µM | > 100 µM | > 100 µM |  |  |  |  |  |  |  |  |  |  |  |  |
| CCn1c(=O)nc2n(-c3ccc(SC)cc3)c3ccccc3nc-2c1=O | > 100 µM | > 100 µM | > 100 µM | > 100 µM | > 100 µM | > 100 µM | > 100 µM | > 100 µM |  |  |  |  |  |  |  |  |  |  |  |  |
| CCOC(=O)C1=C(C)N(NC(=O)Nc2ccccc2)C2(N)N(NC(=O)Nc3ccccc3)C(C)=C(C(=O)OCC)C12C#N (stereo not given) | 51.4 µM | > 100 µM | 32.6 µM |  | 45 µM | 33.1 µM | > 100 µM | 32.2 µM |  |  |  |  |  |  |  |  |  |  |  |  |
| CC/C(=C/c1ccc(OC)cc1)[N+](=O)[O-] | 3.21 µM | 19.6 µM | 3.75 µM | 3.56 µM | 9.09 µM | 3.06 µM | 3.04 µM | 3.35 µM | 1.71 µM | 6.07 µM | 1.89 µM | 1.87 µM | 1.87 µM | 1.56 µM | 1.42 µM | 1.86 µM | 1.98 µM | 3.87 µM |  |  |
| COc1ccccc1NC(=O)c1sc2ncn(CCOc3ccccc3)c(=O)c2c1C | > 50 µM | > 50 µM | > 50 µM | 4.2 µM |  | > 50 µM | > 50 µM | > 50 µM | 6.01 µM | 3.36 µM | 2.88 µM | 1.15 µM |  | 1.8 µM | 12.5 µM | 2.91 µM | > 50 µM | > 50 µM | 3.55 µM | > 50 µM |
| CCNC(=O)O/N=C1\CCC2[C@@H]3CC=C4C[C@@H](OC(=O)NCC)CC[C@]4(C)C3CC[C@]12C (stereo not given in full) | 4.96 µM | 13.5 µM | 1.73 µM | 10.4 µM | > 100 µM | 10.6 µM | 2.62 µM | 12.6 µM |  |  |  |  |  |  |  |  |  |  |  |  |
| CCOC(=O)C(Oc1ccc(OC)c2c1C(=O)CCC2)c1ccccc1 (stereo not given) | > 100 µM | > 100 µM | > 100 µM | > 100 µM | > 100 µM | > 100 µM | > 100 µM | > 100 µM |  |  |  |  |  |  |  |  |  |  |  |  |
